Measurements: patent publication US20060147456A1, “Induction of apoptosis in toll-like receptor expressing tumor cells” (priority 2004, published 2006)

Experiments:
BT483 = assay: Cell recovery by crystal violet staining; type: cell-based, human; details: 50 μg/ml Poly IC, 72 h
Protocol: (§1) Cell recovery after treatment with TLR ligands was measured by crystal violet staining (Sigma-Aldrich). Cells were plated at 10^4 cells/well in 96 well plates. After 72 hours of culture either with or without TLR ligand, the cells were washed with PBS, fixed in 6% formaldehyde (Sigma-Aldrich) for 20 minutes, washed twice, and then stained with 0.1% crystal violet for 10 minutes. After washes and incubation in 1% SDS for 1 hour, the absorbance was read at 605 nm on a Vmax plate reader (Molecular Devices, Sunnyvale, Calif.). Annexin V staining was performed with an annexin-FITC apoptosis detection kit (BD Pharmingen, San Diego, Calif.) according to the manufacturer's instructions. Sub-diploid cells were detected by staining with 3 μg/mL propidium iodide (PI) (Molecular probes, Eugene, Oreg.), after overnight permeabilization in 70% ethanol. Fluorescence was analyzed by flow cytometry on a FACScalibur (Becton Dickinson, Mountain View, Calif.) equipped with a doublet-discrimination module and using Celiquest Pro software (Becton Dickinson).
(§2) Four human breast tumor cell lines, Cama-1, SW527, BT483 and MCF-7, were analyzed for cell death in response to Poly IC. Cells were cultured for 72 hours with 5 μg/ml PGN, 50 μg/ml Poly IC or 10 μg/ml LPS. Control cells were cultured with PBS. Cytotoxicity was assessed by crystal violet staining and expressed as a percent of control.

Cama-1 = assay: Cell recovery by crystal violet staining; type: cell-based, human; details: 50 μg/ml Poly IC, 72 h
Protocol: as §1, §2

MCF-7 = assay: Cell recovery by crystal violet staining; type: cell-based, human; details: 50 μg/ml Poly IC, 72 h
Protocol: as §1, §2

SW527 = assay: Cell recovery by crystal violet staining; type: cell-based, human; details: 50 μg/ml Poly IC, 72 h
Protocol: as §1, §2

TLR3 mRNA = TLR3 mRNA expression by RT-PCR in Cama-1 cells; type: cell-based, human; details: 48 h
Protocol: Cama-1 cells were analyzed for TLR3 mRNA expression in response to Poly IC. Cama-1 cells were cultured in complete medium (DMEM F12 containing […] glucose and complemented with 2 mM L-glutamine, 10% fetal calf serum, 160 μg/mL gentalline, 2.5 mg/mL sodium bicarbonate) for 48 hours either alone or with LPS (5 μg/ml) and/or with Poly IC (5 μg/ml). The mRNA from each group of cells was extracted. The mRNA was then reverse-transcribed and PCR amplified for 35 cycles (as above in Example 1) with hTLR3 specific primers: TLR3F: […] (SEQ ID NO: 5) and TLR3R: […] (SEQ ID NO: 6). TLR3 mRNA could not be amplified from resting Cama-1 cells.
Amplified DNA from RT-PCR using hTLR3 specific primers was run on a gel.

[1] = system: colon cancer cell line LS174T; assay: BrdU incorporation and propidium iodide DNA content by FACS; type: cell-based
Protocol: Two cell lines, the colon cancer cell line LS174T and the breast cancer cell line Cama-1, were analyzed for death and cell cycle changes. Cells were cultured for 48 hours in either the presence or absence of Poly IC (5 μg/ml). Following a 30-minute pulse with 1 μg/ml bromodeoxyuridine (BrdU), the cells were fixed overnight at 4° C. in 70% ethanol before staining with FITC-coupled anti-BrdU monoclonal antibody and 3 μg/ml propidium iodide. Cell death and the cell cycle were analyzed by flow cytometry (FACS). BrdU incorporation is a measure of proliferation, whereas propidium iodide staining allows the quantification of DNA content, in particular the subdiploid cell population undergoing apoptosis.

IFN-β = assay: Western Blot of Cama-1 cell lysate for IFN-β; type: cell-based, human; details: 5 μg/ml Poly IC, 0 to 24 hours
Protocol: (§3) Cama-1 cells were lysed in 1% Nonidet-P40-containing buffer. 20 μg total protein was loaded per lane on SDS-Polyacrylamide gels (Invitrogen). Western Blots (WB) were performed with standard techniques using the antibodies described above. Anti IRAK-4 monoclonal antibodies were generated in the laboratory according to the protocol described in Fossiez et al., “T cell interleukin-17 induces stromal cells to produce proinflammatory and hematopoietic cytokines”, J. Exp. Med., vol. 183(6), pp. 2593-2603 (1996).
The involvement of type 1 interferon in TLR3 mediated apoptosis was evaluated. Cama-1 cells were incubated with 5 μg/ml Poly IC for either 0 hours, 1 hour, 6 hours, 18 hours or 24 hours. The presence of IFN-β, phosphorylated Stat1 (tyrosine 701) (P-Stat-1) and total Stat-1 in the cell lysate were analyzed by Western Blot.

PARP = assay: Western Blot for cleavage of PARP in Cama-1 cells; type: cell-based, human; details: Poly IC treatment
Protocol: as §3
We next addressed the role of caspases in apoptosis. Cama-1 cells were pre-incubated with 25 μM of the general caspase inhibitor z-VAD-fmk or DMSO for 1 hour before culture for 24 hours with or without 5 μg/ml Poly IC or 25 ng/ml TNF-α (used as a positive control). Apoptosis was measured by annexin V staining and expressed as a percentage of apoptotic cell in the culture.
In another experiment, lysates from cells obtained above were analyzed by Western Blot for cleavage of PARP, Caspase 3 and Caspase 8.

SKBr3 cells = assay: Apoptosis analysis of SKBr3 cells; type: cell-based; details: for percentage of SKBr3 cells induced to apoptosis by Poly IC: summary statement
Protocol: We tried to further investigate whether any synergy exists between TLR3 ligands and type I IFN. The primary breast carcinoma cells SKBr3 were plated in 6 well plates at 3×10^5 cells per well. After overnight adherence, siRNA transfections were performed for 5 hours in OptiMEM medium (Life technologies) containing 3μg/mL lipofectamine 2000 (Invivogen) and 100 nM siRNA. Cells were transfected with either MOCK (water), TLR3 siRNA or PKR siRNA. Cells were then washed and cultured for 72 hours in complete medium before 24 hour treatment with 50 μg/ml Poly IC and apoptosis analysis.
In another experiment, we tried to determine whether IFN and Poly IC acted synergistically to induce apoptosis. SKBr3 cells were untreated or pre-treated with either 10 U/ml or 100 U/ml of a low dose mixture of IFN-α or IFN-β. Poly IC was administered in the following doses: 0, 0.5, 5 and 50 μg/ml for 48 hours.

With “polyinosinic-polycytidylic acid [Poly IC]” the “cell recovery, percent of control” value (BT483) was 67%, the “cell recovery, percent of control” value (Cama-1) was 33% and the “cell recovery, percent of control” value (MCF-7) was 100%. The “cell recovery, percent of control” value (SW527) was 75%, the “TLR3 mRNA expression” value (TLR3 mRNA; 5 μg/ml, agent alone) was “induced” and the “TLR3 expression on gel” value (TLR3 mRNA; both Poly IC (5 μg/ml) and LPS (5 μg/ml)) was “showed TLR3 expression”. For the same substance, the “percentage of cells with subdiploid DNA content” value ([1]; 48 h with 5 μg/ml Poly IC (3% before treatment)) was 23%, the “percentage of cells that incorporated BrdU” value ([1]; 48 h with 5 μg/ml Poly IC (27% before treatment)) was 9% and the IFN-β production (IFN-β) was “strongly induced”. The “cleavage of PARP” value (PARP) was “occurred”, the “percentage of apoptotic cells” value (SKBr3 cells; SKBr3, 0.5 μg/ml Poly IC 48 h, no IFN pre-treatment) was 15% and the “percentage of apoptotic cells” value (SKBr3 cells; SKBr3, 0.5 μg/ml Poly IC 48 h, pre-treated IFN-α/β 10 U/ml) was 45%. For the same substance, the “percentage of apoptotic cells” value (SKBr3 cells; SKBr3, 0.5 μg/ml Poly IC 48 h, pre-treated IFN-α/β 100 U/ml) was 55%, the “percentage of apoptotic cells” value (SKBr3 cells; SKBr3, 5 μg/ml Poly IC 48 h, no IFN pre-treatment) was 20% and the “percentage of apoptotic cells” value (SKBr3 cells; SKBr3, 5 μg/ml Poly IC 48 h, pre-treated IFN-α/β 10 U/ml) was 55%. For the same substance, the “percentage of apoptotic cells” value (SKBr3 cells; SKBr3, 5 μg/ml Poly IC 48 h, pre-treated IFN-α/β 100 U/ml) was 60%, the “percentage of apoptotic cells” value (SKBr3 cells; SKBr3, 50 μg/ml Poly IC 48 h, no IFN pre-treatment) was 20% and the “percentage of apoptotic cells” value (SKBr3 cells; SKBr3, 50 μg/ml Poly IC 48 h, pre-treated IFN-α/β 10 U/ml) was 55%. For the same substance, the “percentage of apoptotic cells” value (SKBr3 cells; SKBr3, 50 μg/ml Poly IC 48 h, pre-treated IFN-α/β 100 U/ml) was 60%, the “Poly IC concentration at which cells become sensitive to apoptosis, IFN pre-treated versus non-pretreated cells” value (SKBr3 cells; SKBr3, type I IFN pre-treatment) was “one hundred fold lower” and the “percentage of apoptotic cells” value (SKBr3 cells; SKBr3 MOCK group, 24 h, 50 μg/ml Poly IC, untreated 10%) was 22%. For the same substance, the “percentage of apoptotic cells” value (SKBr3 cells; SKBr3 PKR siRNA group, 24 h, 50 μg/ml Poly IC, untreated 12%) was 22%, the “percentage of apoptotic cells” value (SKBr3 cells; SKBr3 TLR3 siRNA group, 24 h, 50 μg/ml Poly IC, untreated 8%) was 13% and the “percentage of SKBr3 cells induced to apoptosis by Poly IC” value (SKBr3 cells; after type I IFN pre-treatment) was 66%. The “percentage of SKBr3 cells induced to apoptosis by Poly IC” value (SKBr3 cells; without type I IFN pre-treatment) was 22%.
